# Values of other authors in patent US20200188436A1, “Compositions and Methods for Cancer Immunotherapy” (The UAB Research Foundation, priority 2016, published 2020).
# Assays:
# [1] = test system: recurrent multifocal GBM; conditions: two pediatric patients, refractory to standard therapies, single agent
# [2] = test system: diffuse large B-cell lymphoma (DLBCL); conditions: phase II, DLBCL after autologous stem cell transplantation; preliminary results
Substance,clinical response [1],subjects alive [2] [%],subjects progression-free at the end of the follow-up period [2] [%]
"nivolumab: immune checkpoint inhibitor, anti-PD1 antibody",remarkable and durable responses,,
CT-011: humanized IgG1 monoclonal antibody against PD-1,,82,70
